These results are taken from patent publication US11242337B2, “Compounds useful for treating gastrointestinal tract disorders” (Ardelyx, Inc., priority 2017, dated 2022).

One assay concerns the target T1, NHE3 (Homo sapiens, UniProt P48764).
T1 construct: expressed in transfected cells
T1 sequence (P48764 26-834): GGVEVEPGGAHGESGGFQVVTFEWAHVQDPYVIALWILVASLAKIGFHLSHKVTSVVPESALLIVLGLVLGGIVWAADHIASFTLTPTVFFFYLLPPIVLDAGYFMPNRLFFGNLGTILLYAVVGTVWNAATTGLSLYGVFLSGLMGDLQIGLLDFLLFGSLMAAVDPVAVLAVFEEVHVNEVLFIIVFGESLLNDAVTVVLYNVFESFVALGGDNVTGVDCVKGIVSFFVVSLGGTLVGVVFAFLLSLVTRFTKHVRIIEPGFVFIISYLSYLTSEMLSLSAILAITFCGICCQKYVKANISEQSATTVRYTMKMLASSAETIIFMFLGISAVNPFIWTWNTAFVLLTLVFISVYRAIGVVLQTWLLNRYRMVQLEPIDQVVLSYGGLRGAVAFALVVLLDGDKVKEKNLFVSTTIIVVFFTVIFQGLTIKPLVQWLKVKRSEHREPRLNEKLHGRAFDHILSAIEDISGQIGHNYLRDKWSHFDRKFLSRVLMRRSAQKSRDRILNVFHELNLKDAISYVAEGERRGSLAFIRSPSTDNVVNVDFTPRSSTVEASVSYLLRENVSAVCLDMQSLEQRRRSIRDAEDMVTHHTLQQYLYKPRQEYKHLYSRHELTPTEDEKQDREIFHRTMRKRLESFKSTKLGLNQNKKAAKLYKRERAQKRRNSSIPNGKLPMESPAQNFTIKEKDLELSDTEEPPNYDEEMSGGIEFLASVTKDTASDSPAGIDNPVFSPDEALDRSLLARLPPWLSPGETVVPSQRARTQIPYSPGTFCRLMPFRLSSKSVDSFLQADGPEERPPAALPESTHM
T1 sequence (Q99653 2-195 partner limits assumed): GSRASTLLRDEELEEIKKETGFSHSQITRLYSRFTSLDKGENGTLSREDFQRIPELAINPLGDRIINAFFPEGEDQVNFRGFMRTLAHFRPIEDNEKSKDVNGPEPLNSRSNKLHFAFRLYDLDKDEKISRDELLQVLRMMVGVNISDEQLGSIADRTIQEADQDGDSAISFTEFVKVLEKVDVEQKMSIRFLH
Description: Cell-based assay of NHE-3 activity (pre-incubation inhibition), human. To be noted: human Preincubation. An outline of the steps: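 PS120 fibroblasts stably expressing human NHE3 and NHERF2, loaded 30 min at 37 °C with 5 μM BCECF-AM in NH4Cl buffer, then acidified 10 min at room temperature in Na+-free buffer with 0–30 μM compound. Initial rate of BCECF fluorescence ratio change (FLIPR) per minute taken as Na+/H+ activity.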

Assay [1] concerns human duodenum monolayer culture. Put plainly: Sustained inhibition of apical acid secretion in human organoid monolayer cell cultures (duodenum). The class given is cell-based. To be noted: Homo sapiens. An outline of the steps:
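Duodenum organoid cells were plated on Transwells, differentiated with EGF/noggin/A83-01 from day 3, and dosed apically on day 6 with compound at 1 μM final (DMSO vehicle control), in duplicate wells, at 37° C, 5% CO2. Apical media pH was measured by electrode on day 8.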

One may read the inhibition as the relative decrease from the control value, in per cent. A higher inhibition goes with a response far below the control. With `O=C(NCCCCNC(=O)NCCOCCN1CC[C@H](NS(=O)(=O)c2ccc(O[C@H]3c4cc(Cl)cc(Cl)c4C[C@@H]3N3CCNCC3)c(F)c2)C1)NCCOCCN1CC[C@H](NS(=O)(=O)c2ccc(O[C@H]3c4cc(Cl)cc(Cl)c4C[C@@H]3N3CCNCC3)c(F)c2)C1` [Example 106, 4-([(1S,2S)-4,6-Dichloro-2-(piperazin-1-yl)-2,3-dihydro-1H-inden-1-yl]oxy)-N—[(S)-1-(20-[(S)-3-([4-([(1S,2S)-4,6-dichloro-2-(piperazin-1-yl)-2,3-dihydro-1H-inden-1-yl]oxy)-3-fluorophenyl]sulfonamido)pyrrolidin-1-yl]-7,14-dioxo-3,18-dioxa-6,8,13,15-tetraazaicosyl)pyrrolidin-3-yl]-3-fluorobenzenesulfonamide; tetra(trifluoroacetate)], the “% inhibition” value on NHE3 is “C (>70%)”. Moreover, the inhibition at 1 µM in assay [1] is over 70%.
As to `N#Cc1cc(Cl)cc2c1C[C@H](N1CCNCC1)[C@H]2Oc1ccc(S(=O)(=O)N[C@H]2CCN(CCOCCNC(=O)NCCCCNC(=O)NCCOCCN3CC[C@H](NS(=O)(=O)c4ccc(O[C@H]5c6cc(Cl)cc(C#N)c6C[C@@H]5N5CCNCC5)cc4)C3)C2)cc1` [Example 107, 4-([(1S,2S)-6-Chloro-4-cyano-2-(piperazin-1-yl)-2,3-dihydro-1H-inden-1-yl]oxy)-N—[(S)-1-(20-[(S)-3-([4-([(1S,2S)-6-chloro-4-cyano-2-(piperazin-1-yl)-2,3-dihydro-1H-inden-1-yl]oxy)phenyl]sulfonamido)pyrrolidin-1-yl]-7,14-dioxo-3,18-dioxa-6,8,13,15-tetraazaicosyl)pyrrolidin-3-yl]benzenesulfonamide; tetra(trifluoroacetate)], the “% inhibition” value at NHE3 is recorded as “C (>70%)”. Besides, the pIC50 entry at NHE3 (0-30 μM test compound) was “C (NHE3 pIC50 > 7)”. The inhibition at 1 µM in assay [1] is over 70%.
For `N#Cc1cc(Cl)cc2c1C[C@H](N1CCNCC1)[C@H]2Oc1ccc(S(=O)(=O)N[C@@H]2CCN(CCOCCNC(=O)NCCCCNC(=O)NCCOCCN3CC[C@@H](NS(=O)(=O)c4ccc(O[C@H]5c6cc(Cl)cc(C#N)c6C[C@@H]5N5CCNCC5)c(F)c4)C3)C2)cc1F` [Example 109, 4-([(1S,2S)-6-Chloro-4-cyano-2-(piperazin-1-yl)-2,3-dihydro-1H-inden-1-yl]oxy)-N—[(R)-1-(20-[(R)-3-[(4-([(1S,2S)-6-chloro-4-cyano-2-(piperazin-1-yl)-2,3-dihydro-1H-inden-1-yl]oxy)-3-fluorophenyl)sulfonamide)pyrrolidin-1-yl]-7,14-dioxo-3,18-dioxa-6,8,13,15-tetraazaicosyl)pyrrolidin-3-yl]-3-fluorobenzenesulfonamide; tetra(trifluoroacetate)] the same measures were “C (>70%)”, “C (NHE3 pIC50 > 7)” and over 70%.
For the compound `N#Cc1cc(Cl)cc2c1C[C@H](N1CCNCC1)[C@H]2Oc1ccc(S(=O)(=O)N[C@H]2CCN(CCOCCNC(=O)NCCCCNC(=O)NCCOCCN3CC[C@H](NS(=O)(=O)c4ccc(O[C@H]5c6cc(Cl)cc(C#N)c6C[C@@H]5N5CCNCC5)c(F)c4)C3)C2)cc1F` [Example 110, 4-([(1S,2S)-6-Chloro-4-cyano-2-(piperazin-1-yl)-2,3-dihydro-1H-inden-1-yl]oxy)-N—[(S)-1-(20-[(S)-3-[(4-([(1S,2S)-6-chloro-4-cyano-2-(piperazin-1-yl)-2,3-dihydro-1H-inden-1-yl]oxy)-3-fluorophenyl)sulfonamide)pyrrolidin-1-yl]-7,14-dioxo-3,18-dioxa-6,8,13,15-tetraazaicosyl)pyrrolidin-3-yl]-3-fluorobenzenesulfonamide; tetra(trifluoroacetate)], the “% inhibition” value at NHE3 was “C (>70%)”. Besides, on NHE3 (0-30 μM test compound), the pIC50 entry is on record as “C (NHE3 pIC50 > 7)”. The inhibition at 1 µM in assay [1] is over 70%.
The like results for `N#Cc1cc(Cl)cc2c1C[C@H](N1CCNCC1)[C@H]2Oc1ccc(S(=O)(=O)NC2CCN(C(=O)CCCNC(=O)NCCCCNC(=O)NCCCC(=O)N3CCC(NS(=O)(=O)c4ccc(O[C@H]5c6cc(Cl)cc(C#N)c6C[C@@H]5N5CCNCC5)cc4)CC3)CC2)cc1` [Example 115] were, in that order, “C (>70%)”, “C (NHE3 pIC50 > 7)” and over 70%.
For `CN(C)[C@H]1CCCN([C@H]2Cc3c(C#N)cc(Cl)cc3[C@@H]2Oc2ccc(S(=O)(=O)NCCOCCOCCNC(=O)NCCCCNC(=O)NCCOCCOCCNS(=O)(=O)c3ccc(O[C@H]4c5cc(Cl)cc(C#N)c5C[C@@H]4N4CCC[C@H](N(C)C)C4)cc3)cc2)C1` [Example 122, 4-([(1S,2S)-6-Chloro-4-cyano-2-[(S)-3-(dimethylamino)piperidin-1-yl]-2,3-dihydro-1H-inden-1-yl]oxy)-N-[26-([4-([(1S,2S)-6-chloro-4-cyano-2-[(S)-3-(dimethylamino)piperidin-1-yl]-2,3-dihydro-1H-inden-1-yl]oxy)phenyl]sulfonamido)-10,17-dioxo-3,6,21,24-tetraoxa-9,11,16,18-tetraazahexacosyl]benzenesulfonamide] the same measures were “C (>70%)”, “C (NHE3 pIC50 > 7)” and over 70%.
For `N#Cc1cc(Cl)cc2c1C[C@H](N1CCNCC1)[C@H]2Oc1ccc(S(=O)(=O)NC2CCN(CCOCCNC(=O)NCCCCNC(=O)NCCOCCN3CCC(NS(=O)(=O)c4ccc(O[C@H]5c6cc(Cl)cc(C#N)c6C[C@@H]5N5CCNCC5)cc4)CC3)CC2)cc1` [Example 123, 4-([(1S,2S)-6-Chloro-4-cyano-2-(piperazin-1-yl)-2,3-dihydro-1H-inden-1-yl]oxy)-N-[1-(20-[4-([4-([(1S,2S)-6-chloro-4-cyano-2-(piperazin-1-yl)-2,3-dihydro-1H-inden-1-yl]oxy)phenyl]sulfonamide]piperidin-1-yl)-7,14-dioxo-3,18-dioxa-6,8,13,15-tetraazaicosyl]piperidin-4-yl)benzenesulfonamide] the same measures were “C (>70%)”, “C (NHE3 pIC50 > 7)” and over 70%.
A word on the IC50: it is the midpoint of a concentration-inhibition curve. Read a high IC50 as weaker potency in that assay. `N#Cc1cc(Cl)cc2c1C[C@H](N1CCCNCC1)[C@H]2Oc1ccc(S(=O)(=O)N[C@H]2CCN(CCOCCNC(=O)NCCCCNC(=O)NCCOCCN3CC[C@H](NS(=O)(=O)c4ccc(O[C@H]5c6cc(Cl)cc(C#N)c6C[C@@H]5N5CCCNCC5)cc4)C3)C2)cc1` [Example 126, 4-([(1S,2S)-6-Chloro-4-cyano-2-(1,4-diazepan-1-yl)-2,3-dihydro-1H-inden-1-yl]oxy)-N—[(S)-1-(20-[(S)-3-([4-([(1S,2S)-6-chloro-4-cyano-2-(1,4-diazepan-1-yl)-2,3-dihydro-1H-inden-1-yl]oxy)phenyl]sulfonamido)pyrrolidin-1-yl]-7,14-dioxo-3,18-dioxa-6,8,13,15-tetraazaicosyl)pyrrolidin-3-yl]benzenesulfonamide]: the “% inhibition” value at NHE3 is given as “C (>70%)”. The IC50 on NHE3 (0-30 μM test compound) is under 100 nM. This compound registered an inhibition at 1 µM in assay [1] of under 50%.
